Assay results reported in patent US20230147962A1, “FIBROBLAST ACTIVATION PROTEIN LIGANDS FOR TARGETED DELIVERY APPLICATIONS” (PHILOCHEM AG, priority 2020, published 2023).
*1 amine or outer side, *2 acyl side, *3 side chain or, on linkers, in order; H or OH if unused. Where a SMILES comes first, the peptide text is derived from it. The star is where a group is joined. Fluorescein(5-Mal) = O=C1OC2(c3ccc(O)cc3Oc3cc(O)ccc32)c2ccc(N3C(=O)CC(*)C3=O)cc21; X1 = N#C[C@@H]1CC(F)(F)CN1C(=O)CNC(=O)c1ccnc2c(N*)cccc12; Suc = O=C(CCC(=O)[*:2])[*:1]

Experiments:
[1] = molecular target: T1, hFAP (Homo sapiens, UniProt Q12884); test: Chromatographic co-elution (PD-10) of ligand-protein complexes, hFAP; type: binding; settings: PD-10 column, hFAP 2 μM
T1 construct: made in house; host or cells: CHO cells, transient gene expression, purified from supernatant
T1 sequence (Q12884 with tags, fused parts or gaps): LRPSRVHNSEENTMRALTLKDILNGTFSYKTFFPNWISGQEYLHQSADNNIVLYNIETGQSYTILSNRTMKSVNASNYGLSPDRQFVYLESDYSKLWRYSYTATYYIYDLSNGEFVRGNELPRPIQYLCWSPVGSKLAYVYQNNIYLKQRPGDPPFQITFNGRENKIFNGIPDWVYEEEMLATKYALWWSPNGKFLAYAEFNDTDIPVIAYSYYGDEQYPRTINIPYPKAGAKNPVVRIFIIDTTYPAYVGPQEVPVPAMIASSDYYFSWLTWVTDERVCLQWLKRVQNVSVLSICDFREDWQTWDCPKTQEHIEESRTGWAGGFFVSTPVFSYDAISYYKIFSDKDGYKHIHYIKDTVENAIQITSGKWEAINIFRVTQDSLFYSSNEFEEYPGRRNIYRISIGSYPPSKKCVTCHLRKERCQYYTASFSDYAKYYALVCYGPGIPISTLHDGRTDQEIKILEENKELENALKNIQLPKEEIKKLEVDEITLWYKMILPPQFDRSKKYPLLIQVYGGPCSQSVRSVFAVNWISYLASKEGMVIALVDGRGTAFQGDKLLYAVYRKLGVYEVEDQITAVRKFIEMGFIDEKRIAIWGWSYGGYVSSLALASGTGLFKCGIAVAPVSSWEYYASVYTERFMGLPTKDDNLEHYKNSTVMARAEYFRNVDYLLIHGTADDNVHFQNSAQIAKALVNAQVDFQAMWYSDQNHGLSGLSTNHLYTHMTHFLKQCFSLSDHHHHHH
Protocol: A PD-10 column was pre-equilibrated with assay buffer (50 mM Tris, 100 mM NaCl, 1 mM EDTA, pH=7.4) prior to the loading of the complex. Human FAP (2 μM) and fluorescein-labeled binders (6 μM) were incubated for 30 min at 37° C. in the dark. The mixture was loaded and the column was flushed using the assay buffer. The flow through was collected in 96-well plates and the fluorescence was measured immediately on a TECAN microtiter plate reader, monitoring the fluorescence at an excitation wavelength of 485 nm and an emission wavelength of 535 nm. The protein quantities were estimated by measuring the absorbance at 280 nm using a Nanodrop 2000/2000c spectrophotometer.
(§1) A PD-10 column was pre-equilibrated with assay buffer (50 mM Tris, 100 mM NaCl, 1 mM EDTA, pH=7.4) prior to the loading of the complex. A mixture of different proteins (hFAP=2 μM, mFAP=5 μM) and conjugate 15 (100 nM) were incubated and loaded on the column. The mixture was flushed using the assay buffer. The flow through was collected in 96-well plates and the fluorescence intensity was measured immediately on a TECAN microtiter plate reader, monitoring the fluorescence at an excitation wavelength of 485 nm and an emission wavelength of 535 nm. The concentration of the proteins was estimated by measuring the absorbance at 280 nm using a Nanodrop 2000/2000c spectrophotometer.

[2] = molecular target: T2, mFAP (Mus musculus, UniProt P97321); test: Chromatographic co-elution (PD-10) of ligand-protein complexes, mFAP; type: binding, murine; settings: PD-10 column, mFAP 5 μM
T2 sequence (P97321 1-761): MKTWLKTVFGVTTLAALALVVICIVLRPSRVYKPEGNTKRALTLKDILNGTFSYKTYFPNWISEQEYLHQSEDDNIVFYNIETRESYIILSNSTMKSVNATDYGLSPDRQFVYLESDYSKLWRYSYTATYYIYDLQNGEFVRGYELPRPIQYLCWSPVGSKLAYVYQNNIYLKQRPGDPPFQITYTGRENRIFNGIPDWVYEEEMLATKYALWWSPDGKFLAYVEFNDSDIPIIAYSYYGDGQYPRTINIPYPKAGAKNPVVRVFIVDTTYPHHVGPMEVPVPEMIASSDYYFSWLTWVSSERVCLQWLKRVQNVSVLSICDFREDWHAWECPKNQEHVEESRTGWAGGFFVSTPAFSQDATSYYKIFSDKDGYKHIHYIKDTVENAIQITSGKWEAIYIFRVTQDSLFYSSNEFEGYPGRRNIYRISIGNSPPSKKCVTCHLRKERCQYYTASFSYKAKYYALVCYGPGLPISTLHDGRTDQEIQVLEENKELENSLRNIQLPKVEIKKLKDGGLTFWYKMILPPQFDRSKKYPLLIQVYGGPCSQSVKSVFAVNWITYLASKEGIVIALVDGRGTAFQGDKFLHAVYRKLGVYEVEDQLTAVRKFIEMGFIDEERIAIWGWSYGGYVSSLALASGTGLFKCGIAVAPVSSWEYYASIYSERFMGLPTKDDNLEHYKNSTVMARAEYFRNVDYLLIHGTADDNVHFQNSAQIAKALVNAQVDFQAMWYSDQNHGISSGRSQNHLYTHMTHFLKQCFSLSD
Protocol: as §1

[3] = tested on: HT-1080.hFAP; test: Confocal microscopy on HT-1080.hFAP; type: cell-based; settings: t=0 and 1 h
Protocol: HT-1080.hFAP and HT-1080 cells were seeded into 4-well cover slip chamber plates at a density of 10^4 cells per well in DMEM medium (1 mL) supplemented with 10% FCS, AA and HEPES (10 mM) and allowed to grow for 24 hours under standard culture conditions. Hoechst 33342 nuclear dye was used to stain nuclear structures.
The culture medium was replaced with fresh medium containing conjugate 15 (100 nM). Randomly selected colonies imaged on a SP8 confocal microscope equipped with an AOBS device (Leica Microsystems).

[4] = tested on: SK-RC-52.hFAP; test: FACS analysis on SK-RC-52 wild type and SK-RC-52.hFAP; type: cell-based; settings: 10 nM
Protocol: (§2) SK-RC-52.hFAP, SK-RC-52.wt, HT-1080.wt and HT-1080.hFAP were detached from culture plates using Accutase, counted and suspended to a final concentration of 1.5×10^6 cells/mL in a 1% v/v solution of FCS in PBS pH 7.4. […] Cells were washed once with 200 μL 1% v/v solution of FCS in PBS pH 7.4 (200 μL), spun down, resuspended in a 1% v/v solution of FCS in PBS pH 7.4 (300 μL) and analyzed on a CytoFLEX cytometer (Beckman Coulter). The raw data were processed with the FlowJo 10.4 software.

[5] = tested on: HT-1080.hFAP; test: FACS analysis on HT-1080 wild type and HT-1080.hFAP; type: cell-based; settings: 10 nM
Protocol: as §2

SMILES: N#C[C@@H]1CC(F)(F)CN1C(=O)CNC(=O)c1ccnc2c(NC(=O)CCC(=O)N[C@@H](CC(=O)O)C(=O)N[C@@H](CCCCN)C(=O)N[C@@H](CC(=O)O)C(=O)N[C@@H](CSC3CC(=O)N(c4ccc5c(c4)C(=O)OC54c5ccc(O)cc5Oc5cc(O)ccc54)C3=O)C(=O)O)cccc12 (stereo partly drawn) [Conjugate 15, (2R,5S,8S,11S)-8-(4-aminobutyl)-5,11-bis(carboxymethyl)-16-((4-((2-((S)-2-cyano-4,4-difluoropyrrolidin-1-yl)-2-oxoethyl)carbamoyl)quinolin-8-yl)amino)-2-(((1-(3′,6′-dihydroxy-3-oxo-3H-spiro[isobenzofuran-1,9′-xanthen]-5-yl)-2,5-dioxopyrrolidin-3-yl)thio)methyl)-4,7,10,13,16-pentaoxo-3,6,9,12-tetraazahexadecanoic acid] ({X1-Suc}-DKDC(Fluorescein(5-Mal))-OH)
- complex formation with hFAP in PD-10 co-elution [1]: stable complex is formed
- complex formation with mFAP in PD-10 co-elution [2]: stable complex is formed
- accumulation on HT-1080.hFAP cells [3]: accumulation of conjugate 15 on the cell membrane and inside the cytosol
- cellular binding, SK-RC-52 Wild type vs SK-RC-52.hFAP [4]: FAP-specific cellular binding
- cellular binding, HT-1080 Wild type vs HT-1080.hFAP [5]: FAP-specific cellular binding
